Assay [1] has as its target T1, MAP kinase p38 (Homo sapiens, UniProt O15264+Q15759+Q16539+P53778). The assay is described as follows: Inhibition of Mitogen-activated protein kinase p38. In kind it is protein assay.
In assay [2] the target is T1, MAP kinase p38. The assay is described as follows: Inhibition of Mitogen-activated protein kinase p38 at 1000 nM. It is filed as protein assay.
Assay [3] has as its target T2, Mitogen-activated protein kinase 9 (Homo sapiens, UniProt P45984). The assay is described as follows: Inhibition of JNK2-alpha-1 kinase.
Assay [4] has as its target T2, Mitogen-activated protein kinase 9. The assay is described as follows: Inhibition of JNK2-alpha-2 kinase.
Assay [5] deals with RAF proto-oncogene serine/threonine-protein kinase (Homo sapiens) (UniProt P04049). The assay is described as follows: Inhibition of c-Raf kinase at 5000 nM.
RAF proto-oncogene serine/threonine-protein kinase (Homo sapiens), sequence (P04049 whole entry): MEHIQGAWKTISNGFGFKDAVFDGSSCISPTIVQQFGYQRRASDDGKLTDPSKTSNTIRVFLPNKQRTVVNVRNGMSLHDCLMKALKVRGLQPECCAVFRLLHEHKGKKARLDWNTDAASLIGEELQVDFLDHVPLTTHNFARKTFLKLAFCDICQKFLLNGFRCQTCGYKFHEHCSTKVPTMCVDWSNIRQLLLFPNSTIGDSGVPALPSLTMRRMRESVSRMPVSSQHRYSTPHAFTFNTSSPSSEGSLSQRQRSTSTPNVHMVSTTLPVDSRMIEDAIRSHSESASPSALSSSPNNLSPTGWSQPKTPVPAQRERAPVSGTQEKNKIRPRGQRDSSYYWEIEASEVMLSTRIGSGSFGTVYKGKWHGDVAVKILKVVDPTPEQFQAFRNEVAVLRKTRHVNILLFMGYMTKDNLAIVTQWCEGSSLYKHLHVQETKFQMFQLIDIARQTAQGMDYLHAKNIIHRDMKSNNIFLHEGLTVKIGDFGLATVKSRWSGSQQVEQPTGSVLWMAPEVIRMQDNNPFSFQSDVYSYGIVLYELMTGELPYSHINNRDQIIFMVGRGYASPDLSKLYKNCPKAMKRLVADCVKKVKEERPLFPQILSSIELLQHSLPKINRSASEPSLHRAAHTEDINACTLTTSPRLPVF
The target in assay [6] is Tyrosine-protein kinase Lck (Homo sapiens) (UniProt P06239). The assay is described as follows: Inhibition of LCK1 kinase at 15000 nM.
Tyrosine-protein kinase Lck (Homo sapiens), sequence (P06239 2-509 limits assumed): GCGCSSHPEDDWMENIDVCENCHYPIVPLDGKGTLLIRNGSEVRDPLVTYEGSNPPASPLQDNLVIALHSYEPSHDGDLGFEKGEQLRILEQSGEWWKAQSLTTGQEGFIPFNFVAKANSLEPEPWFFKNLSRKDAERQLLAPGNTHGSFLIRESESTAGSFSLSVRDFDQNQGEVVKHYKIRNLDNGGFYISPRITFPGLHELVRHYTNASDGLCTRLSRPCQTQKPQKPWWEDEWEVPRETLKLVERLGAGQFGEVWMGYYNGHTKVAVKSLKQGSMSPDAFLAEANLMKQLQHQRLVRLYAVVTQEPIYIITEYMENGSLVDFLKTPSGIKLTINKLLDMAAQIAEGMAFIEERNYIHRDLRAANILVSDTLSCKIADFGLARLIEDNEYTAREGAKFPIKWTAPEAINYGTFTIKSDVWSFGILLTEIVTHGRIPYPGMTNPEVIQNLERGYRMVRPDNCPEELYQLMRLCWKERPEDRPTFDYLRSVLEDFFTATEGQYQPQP

This note sets out measurements from ChEMBL document CHEMBL1135080, “Pyridazine based inhibitors of p38 MAPK” (Bioorg Med Chem Lett, 2002).

By IC50 is commonly meant the concentration at which inhibition is half-maximal. A lower IC50 goes with greater potency. By inhibition is commonly meant the relative decrease from the control value, in per cent. Read a high inhibition as strong suppression.

The structures appear in SMILES notation.

T2 sequence (P45984 whole entry): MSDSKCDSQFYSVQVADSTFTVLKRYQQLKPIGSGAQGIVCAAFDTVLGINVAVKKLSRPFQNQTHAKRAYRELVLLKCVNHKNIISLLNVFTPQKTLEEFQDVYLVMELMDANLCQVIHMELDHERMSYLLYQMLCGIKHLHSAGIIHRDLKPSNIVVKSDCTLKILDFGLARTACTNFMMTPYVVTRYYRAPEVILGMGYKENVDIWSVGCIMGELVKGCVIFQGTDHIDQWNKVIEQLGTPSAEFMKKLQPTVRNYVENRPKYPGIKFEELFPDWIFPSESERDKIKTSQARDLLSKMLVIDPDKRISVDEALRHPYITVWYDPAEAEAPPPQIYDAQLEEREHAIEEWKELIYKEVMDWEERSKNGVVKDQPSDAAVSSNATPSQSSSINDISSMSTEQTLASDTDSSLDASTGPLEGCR

Consider `CC1CCN(c2cc(-c3ccnc(N[C@@H](C)c4ccccc4)n3)c(-c3cccc(C(F)(F)F)c3)nn2)CC1`, for which the IC50 at MAP kinase p38 [1] is listed as 7.4 nM.

As for `C[C@H](Nc1nccc(-c2cc(N3CCN(C)CC3)nnc2-c2cccc(C(F)(F)F)c2)n1)c1ccccc1`, the IC50 against MAP kinase p38 [1] stood at 1.9 nM. Against the preceding compound, the IC50 is about 3.9-fold lower.

Consider `C[C@H](Nc1nccc(-c2cc(N3CCCCC3)nnc2-c2cccc(C(F)(F)F)c2)n1)c1ccccc1`, for which the half-inhibitory concentration (IC50) on MAP kinase p38 [1] is listed as 20.1 nM.

Turning to `C[C@H](Nc1nccc(-c2nnc(C3CCNCC3)cc2-c2cccc(C(F)(F)F)c2)n1)c1ccccc1`, the inhibition at MAP kinase p38 [2] came to 4.81%.

As for `C[C@H](Nc1nccc(-c2cc(N(C)C)nnc2-c2cccc(C(F)(F)F)c2)n1)c1ccccc1`, the IC50 against MAP kinase p38 [1] came to 2.5 nM.

`C[C@H](Nc1nccc(-c2cc(N3CCOCC3)nnc2-c2cccc(C(F)(F)F)c2)n1)c1ccccc1`: the IC50 against MAP kinase p38 [1] came out at 2.6 nM; in assay [3], 820 nM; in assay [4] it was 1400 nM. For the same compound, the inhibition was 29% in assay [5] and 22% in assay [6].

Compound `C[C@H](Nc1nccc(-c2cc(N3CCNCC3)nnc2-c2cccc(C(F)(F)F)c2)n1)c1ccccc1` returned a half-inhibitory concentration (IC50) on MAP kinase p38 [1] of 0.6 nM.

As for `C[C@H](Nc1nccc(-c2cc(N(C)CCN(C)C)nnc2-c2cccc(C(F)(F)F)c2)n1)c1ccccc1`, the IC50 against MAP kinase p38 [1] worked out at 1.4 nM.

Compound `C[C@H](Nc1nccc(-c2nc(C3CCNCC3)n(C)c2-c2cccc(C(F)(F)F)c2)n1)c1ccccc1` came in with a 50% inhibitory concentration (IC50) against MAP kinase p38 [1] of 12000 nM.
